The values that follow come from patent US10093664B2, “Bicyclo[1.1.1]pentane inhibitors of dual leucine zipper (DLK) kinase for the treatment of disease” (priority 2016, dated 2018).

Experiment [1] addresses T1, human DLK (Homo sapiens (Human), UniProt Q12852). As to the kind of experiment: biochemical. The note with it: Table 2b DLK activity (global); read-out: Kd. Format: binding.
Procedure: The DLK dissociation constants (Kd) have been determined in the KINOMEscan KdELECT Service at DiscoveRx.
A fusion protein of full length of human DLK (amino acids 1-859) and the DNA binding domain of NFkB was expressed in transiently transfected HEK293 cells. From these HEK 293 cells, extracts were prepared in M-PER extraction buffer (Pierce) in the presence of Protease Inhibitor Cocktail Complete (Roche) and Phosphatase Inhibitor Cocktail Set II (Merck) per manufacturers' instructions. The DLK fusion protein was labeled with a chimeric double-stranded DNA tag containing the NFkB binding site (5′-[sequence]-3′) fused to an amplicon for qPCR readout, which was added directly to the expression extract (the final concentration of DNA-tag in the binding reaction is 0.1 nM).
The liganded beads were blocked with excess biotin and washed with blocking buffer (SeaBlock (Pierce), 1% BSA, 0.05% Tween 20, 1 mM DTT) to remove unbound ligand and to reduce nonspecific binding.
Extracts were used directly in binding assays without any enzyme purification steps at a ≥10,000-fold overall stock dilution (final DNA-tagged enzyme concentration <0.1 nM). Extracts were loaded with DNA-tag and diluted into the binding reaction in a two step process. First extracts were diluted 1:100 in 1× binding buffer (PBS/0.05% Tween 20/10 mM DTT/0.1% BSA/2 μg/ml sonicated salmon sperm DNA) containing 10 nM DNA-tag. This dilution was allowed to equilibrate at room temperature for 15 minutes and then subsequently diluted 1:100 in 1× binding buffer. Test compounds were prepared as 111× stocks in 100% DMSO. Kds were determined using an 11-point 3-fold compound dilution series with three DMSO control points. […] The compounds were then diluted directly into the assays such that the final concentration of DMSO was 0.9%. All reactions performed in polypropylene 384-well plates. Each was a final volume of 0.02 mL. Assays were incubated with shaking for 1 hour at room temperature. Then the beads were pelleted and washed with wash buffer (1×PBS, 0.05% Tween 20) to remove displaced kinase and test compound. […] The kinase concentration in the eluates was measured by qPCR. qPCR reactions were assembled by adding 2.5 μL of kinase eluate to 7.5 μL of qPCR master mix containing 0.15 μM amplicon primers and 0.15 μM amplicon probe. The qPCR protocol consisted of a 10 minute hot start at 95° C., followed by 35 cycles of 95° C. for 15 seconds, 60° C. for 1 minute.
Test compounds were prepared as 11× stocks in 100% DMSO. Kds were determined using an 11-point 3-fold compound dilution series with three DMSO control points. […] The compounds were then diluted directly into the assays such that the final concentration of DMSO was 0.9%. The Kds were determined using a compound top concentration of 30,000 nM. Kd measurements were performed in duplicate.
Binding constants (Kds) were calculated with a standard dose-response curve using the Hill equation:
The Hill Slope was set to −1.
Experiment [2] has as its target T1, human DLK. As to the kind of experiment: cell-based. The note with it: Table 2b (global); additional assay runs on multiple batches, includes Table 2a data in the averaging; p-cJun (Ser63), HEK293; read-out: Cell IC50.
Procedure: HEK293 cells stably transfected with a Dox-inducible human DLK were plated into a 384-well plate in 20 μl (40,000 cells/well) of DMEM medium (without phenol red) containing 10% fetal bovine serum, 1.5 μg/ml doxycycline and 1 μg/ml puromycin. The cells as negative control were grown in the absence of doxycycline. The plate was incubated at 37° C., 5% CO2 for 20 h, before DMSO (control) or compounds diluted in medium were added. The cells were incubated at 37° C. for an additional 5 h, followed by lysis and the addition detection antibodies from p-cJun (Ser63) cellular assay kit (Cisbio) per manufacturer protocol. The standard dose response curves were fitted by Genedata Screener software using the variable-slope model: Signal=Signalnegative control+(SignalDMSO control−Signalnegative control)/(1+(IC50/Dose)^Hill slope). Only signal and dose in the equation were treated as known values.

`Nc1ncc(-c2cn(C34CC(N5CCOCC5)(C3)C4)c(C3CCCO3)n2)cc1OC(F)(F)F` (stereo not drawn) [Example 32, 5-(1-(3-morpholinobicyclo[1.1.1]pentan-1-yl)-2-(tetrahydrofuran-2-yl)-1H-imidazol-4-yl)-3-(trifluoromethoxy)pyridin-2-amine]: the Kd at human DLK [1] was found to be 6.7 nM. For the same molecule, at human DLK [2], the IC50 stood at 518 nM.
For `Nc1ncc(-c2cn(C34CC(N5CCOCC5)(C3)C4)c([C@H](O)C(F)(F)F)n2)cc1OC(F)(F)F` (single isomer, unassigned) [Example 8a], the Kd on human DLK [1] came out at 0.36 nM. Besides, the IC50 on human DLK [2] is 24.8 nM.
For `CN1CCN(C23CC(n4cc(-c5cnc(N)c(OC(F)(F)F)c5)nc4C4CC4)(C2)C3)CC1=O` [Example 22, 4-(3-(4-(6-amino-5-(trifluoromethoxy)pyridin-3-yl)-2-cyclopropyl-1H-imidazol-1-yl)bicyclo[1.1.1]pentan-1-yl)-1-methylpiperazin-2-one] the same measures were 9.7 nM and 404 nM.
For the molecule `CS(=O)(=O)N1CCN(C23CC(n4cc(-c5cnc(N)c(OC(F)(F)F)c5)nc4C4CC4)(C2)C3)CC1` [Example 16, 5-(2-cyclopropyl-1-(3-(4-(methylsulfonyl)piperazin-1-yl)bicyclo[1.1.1]pentan-1-yl)-1H-imidazol-4-yl)-3-(trifluoromethoxy)pyridin-2-amine], the equilibrium dissociation constant (Kd) at human DLK [1] is 24 nM. Further, the IC50 on human DLK [2] amounted to 457 nM.
For `Nc1ncc(-c2cn(C34CC(N5CCOCC5)(C3)C4)c(CC(F)(F)F)n2)cc1OC(F)(F)F` [Example 48, 5-(1-(3-morpholinobicyclo[1.1.1]pentan-1-yl)-2-(2,2,2-trifluoroethyl)-1H-imidazol-4-yl)-3-(trifluoromethoxy)pyridin-2-amine] the same measures were 13 nM and 413 nM.
As to `C#CCN1CCN(C23CC(n4cc(-c5cnc(N)c(OC(F)(F)F)c5)nc4[C@H](O)C(C)C)(C2)C3)CC1` (single isomer, unassigned) [Example 9b], the half-inhibitory concentration (IC50) on human DLK [2] turned out to be 684 nM.
Consider `CC(C)C(O)c1nc(-c2cnc(N)c(OC(F)(F)F)c2)cn1C12CC(C1)C2` (stereo not drawn) [Example 57, 1-(4-(6-amino-5-(trifluoromethoxy)pyridin-3-yl)-1-(bicyclo[1.1.1]pentan-1-yl)-1H-imidazol-2-yl)-2-methylpropan-1-ol], for which the Kd at human DLK [1] was 0.62 nM. In addition, the IC50 at human DLK [2] came out at 38.6 nM.
In the case of `C[C@H](O)c1nc(-c2cnc(N)c(C(F)(F)F)c2)cn1C12CC(C1)C2` [Example 33, (S)-1-(4-(6-amino-5-(trifluoromethyl)pyridin-3-yl)-1-(bicyclo[1.1.1]pentan-1-yl)-1H-imidazol-2-yl)ethan-1-ol], the Kd on human DLK [1] came out at 9.7 nM. For the same molecule, on human DLK [2], the IC50 amounted to 207 nM.
For `Nc1ncc(-c2cn(C34CC(N5CCCCC5)(C3)C4)c(C3CC3)n2)cc1OC(F)(F)F` [Example 19, 5-(2-cyclopropyl-1-(3-(piperidin-1-yl)bicyclo[1.1.1]pentan-1-yl)-1H-imidazol-4-yl)-3-(trifluoromethoxy)pyridin-2-amine] the same measures were 14 nM and 600 nM.
Turning to `Nc1ncc(-c2cn(C34CC(N5CCOCC5)(C3)C4)c(C=O)n2)cc1OC(F)(F)F` [Example 66, 4-(6-amino-5-(trifluoromethoxy)pyridin-3-yl)-1-(3-morpholinobicyclo[1.1.1]pentan-1-yl)-1H-imidazole-2-carbaldehyde], at human DLK [1], the Kd was determined as 44 nM. The IC50 on human DLK [2] is 1400 nM.
Regarding `CC(O)c1nc(-c2cnc(N)c(OC(F)(F)F)c2)cn1C12CC(C1)C2` (stereo not drawn) [Example 55, 1-(4-(6-amino-5-(trifluoromethoxy)pyridin-3-yl)-1-(bicyclo[1.1.1]pentan-1-yl)-1H-imidazol-2-yl)ethan-1-ol], the Kd at human DLK [1] came out at 14 nM. Also, on human DLK [2], the IC50 was 443 nM.
Take `CC(C)c1nc(-c2cnc(N)c(OC(F)(F)F)c2)cn1C12CC(N3CCN(C)CC3)(C1)C2` [Example 74, 5-(2-isopropyl-1-(3-(4-methylpiperazin-1-yl)bicyclo[1.1.1]pentan-1-yl)-1H-imidazol-4-yl)-3-(trifluoromethoxy)pyridin-2-amine]: the Kd at human DLK [1] was 4.5 nM. Further, the IC50 on human DLK [2] worked out at 196 nM.
On to `FC(F)(F)c1c[nH]c2ncc(-c3cn(C45CC(N6CCOCC6)(C4)C5)c(C4CC4)n3)cc12` [Example 18, 4-(3-(2-cyclopropyl-4-(3-(trifluoromethyl)-1H-pyrrolo[2,3-b]pyridin-5-yl)-1H-imidazol-1-yl)bicyclo[1.1.1]pentan-1-yl)morpholine], for which the Kd on human DLK [1] is 1.9 nM. The IC50 on human DLK [2] was 155 nM.
For `CC(C)c1nc(-c2cnc3ccn(C(C)c4ccccn4)c3c2)cn1C12CC(N3CCOCC3)(C1)C2` (stereo not drawn) [Example 28, 4-(3-(2-isopropyl-4-(1-(1-(pyridin-2-yl)ethyl)-1H-pyrrolo[3,2-b]pyridin-6-yl)-1H-imidazol-1-yl)bicyclo[1.1.1]pentan-1-yl)morpholine], on human DLK [1], the equilibrium dissociation constant (Kd) is 2.9 nM. Further, the IC50 at human DLK [2] was 148 nM.
For the molecule `CC(C)C(O)c1nc(-c2cnc(N)c(C(F)(F)F)c2)cn1C12CC(C1)C2` (stereo not drawn) [Example 59, 1-(4-(6-amino-5-(trifluoromethyl)pyridin-3-yl)-1-(bicyclo[1.1.1]pentan-1-yl)-1H-imidazol-2-yl)-2-methylpropan-1-ol], on human DLK [1], the Kd was 0.29 nM. In addition, the IC50 at human DLK [2] came out at 20.9 nM.
As for `c1cc2ncc(-c3cn(C45CC(N6CCOCC6)(C4)C5)c(C4CC4)n3)cc2[nH]1` [Example 20, 4-(3-(2-cyclopropyl-4-(1H-pyrrolo[3,2-b]pyridin-6-yl)-1H-imidazol-1-yl)bicyclo[1.1.1]pentan-1-yl)morpholine], the Kd on human DLK [1] was 7500 nM. The IC50 at human DLK [2] turned out to be 12000 nM.
Regarding `Nc1ncc(-c2cn(C34CC(C3)C4)c([C@H](O)C(F)(F)F)n2)cc1C(F)(F)F` (single isomer, unassigned) [Example 6a], at human DLK [2], the IC50 worked out at 745 nM.
Turning to `Nc1ncc(-c2cn(C34CC(N5CCOCC5)(C3)C4)c(C3CCOC3)n2)cc1OC(F)(F)F` (stereo not drawn) [Example 30, 5-(1-(3-morpholinobicyclo[1.1.1]pentan-1-yl)-2-(tetrahydrofuran-3-yl)-1H-imidazol-4-yl)-3-(trifluoromethoxy)pyridin-2-amine], on human DLK [1], the Kd was determined as 390 nM. Moreover, on human DLK [2], the IC50 amounted to 5110 nM.
On to `Nc1ncc(-c2cn(C34CC(C3)C4)c(C(O)C(F)(F)F)n2)cc1OC(F)(F)F` (stereo not drawn) [Example 63b, 1-(4-(6-amino-5-(trifluoromethoxy)pyridin-3-yl)-1-(bicyclo[1.1.1]pentan-1-yl)-1H-imidazol-2-yl)-2,2,2-trifluoroethan-1-ol], for which, on human DLK [1], the Kd turned out to be 1.6 nM.
As to `N#CC1(c2nc(-c3cnc(N)c(OC(F)(F)F)c3)cn2C23CC(N4CCOCC4)(C2)C3)CC1` [Example 29, 1-(4-(6-amino-5-(trifluoromethoxy)pyridin-3-yl)-1-(3-morpholinobicyclo[1.1.1]pentan-1-yl)-1H-imidazol-2-yl)cyclopropane-1-carbonitrile], at human DLK [1], the Kd worked out at 20 nM. Further, the IC50 on human DLK [2] turned out to be 531 nM.
Regarding `Nc1ncc(-c2cn(C34CC(N5CCC(O)CC5)(C3)C4)c(C3CC3)n2)cc1OC(F)(F)F` [Example 26, 1-(3-(4-(6-amino-5-(trifluoromethoxy)pyridin-3-yl)-2-cyclopropyl-1H-imidazol-1-yl)bicyclo[1.1.1]pentan-1-yl)piperidin-4-ol], the Kd on human DLK [1] came out at 7 nM. In addition, at human DLK [2], the IC50 was 383 nM.
As to `CCC(O)c1nc(-c2cnc(N)c(C(F)(F)F)c2)cn1C12CC(C1)C2` (stereo not drawn) [Example 61, 1-(4-(6-amino-5-(trifluoromethyl)pyridin-3-yl)-1-(bicyclo[1.1.1]pentan-1-yl)-1H-imidazol-2-yl)propan-1-ol], at human DLK [1], the Kd worked out at 2.1 nM. The IC50 on human DLK [2] is 167 nM.
Taken in the same sequence, the figures for `Nc1ncc(-c2cn(C34CC(N5CCOCC5)(C3)C4)c(C3CC3)n2)cc1OC(F)F` [Example 37, 5-(2-cyclopropyl-1-(3-morpholinobicyclo[1.1.1]pentan-1-yl)-1H-imidazol-4-yl)-3-(difluoromethoxy)pyridin-2-amine] were 19 nM and 351 nM.
On to `CCC(O)c1nc(-c2cnc(N)c(OC(F)(F)F)c2)cn1C12CC(C1)C2` (stereo not drawn) [Example 54, 1-(4-(6-amino-5-(trifluoromethoxy)pyridin-3-yl)-1-(bicyclo[1.1.1]pentan-1-yl)-1H-imidazol-2-yl)propan-1-ol], for which the Kd on human DLK [1] came to 11 nM. The IC50 at human DLK [2] is 319 nM.
As for `Nc1ncc(-c2cn(C34CC(N5CCOCC5)(C3)C4)c(C3CCCC3)n2)cc1OC(F)(F)F` [Example 44, 5-(2-cyclopentyl-1-(3-morpholinobicyclo[1.1.1]pentan-1-yl)-1H-imidazol-4-yl)-3-(trifluoromethoxy)pyridin-2-amine], the Kd at human DLK [1] came to 53 nM. For the same molecule, the IC50 on human DLK [2] came to 841 nM.
`C#CCN1CCN(C23CC(n4cc(-c5cnc(N)c(OC(F)(F)F)c5)nc4[C@@H](O)C(C)C)(C2)C3)CC1` (single isomer, unassigned) [Example 9a]: at human DLK [2], the IC50 amounted to 20.2 nM.
Consider `CCCN1CCN(C23CC(n4cc(-c5cnc(N)c(OC(F)(F)F)c5)nc4C(O)C(C)C)(C2)C3)CC1` (stereo not drawn) [Example 70, 1-(4-(6-amino-5-(trifluoromethoxy)pyridin-3-yl)-1-(3-(4-propylpiperazin-1-yl)bicyclo[1.1.1]pentan-1-yl)-1H-imidazol-2-yl)-2-methylpropan-1-ol], for which the IC50 on human DLK [2] was 923 nM.
`Nc1ncc(-c2cn(C34CC(N5CCOCC5)(C3)C4)c([C@@H](O)C(F)(F)F)n2)cc1OC(F)(F)F` (single isomer, unassigned) [Example 8b]: on human DLK [2], the IC50 was 284 nM.
Regarding `Nc1ncc(-c2cn(C34CC(N5CCOCC5)(C3)C4)c(C(O)C(F)(F)F)n2)cc1C(F)(F)F` (single isomer, unassigned) [Example 69b, 1-(4-(6-amino-5-(trifluoromethyl)pyridin-3-yl)-1-(3-morpholinobicyclo[1.1.1]pentan-1-yl)-1H-imidazol-2-yl)-2,2,2-trifluoroethan-1-ol], the IC50 on human DLK [2] was found to be 722 nM.
